These results are taken from PMC10536189 (Microorganisms, 2023).

Where two headings read alike, the source gives them in different places. Where no end group is shown, it is not given here.

Assay [1] relates to Mycobacterium avium subsp. paratuberculosis (MAP). In kind it is cell-based.
Assay [2] relates to Mycobacterium tuberculosis (MTB). The assay is classed as cell-based, Mycobacterium tuberculosis (laboratory strain H37Rv).
The test system of the next assay is M. tuberculosis. In kind it is cell-based, Mycobacterium tuberculosis (laboratory strain H37Rv). The conditions noted are these: for Time to Positivity (Days.Hours) Experiment 2: control (0 µg/mL) 6.12; for Time to Positivity (Days.Hours) Experiment 1: control (0 µg/mL) 6.19.
The test system of the next assay is MTB H37Rv. The assay is classed as cell-based, Mycobacterium tuberculosis H37Rv. As to conditions: 14D at 1 µg/mL.
Assay [3] deals with mycobacteria. Put plainly: TTP in BacT/Alert system. In kind it is cell-based. The conditions noted are these: Peptide 14D; BacT/Alert (Biomerieux); Figure S1. The method, then:
(§1) Peptide 14D was used to check if other machines that are routinely used in medical microbiology for the detection of mycobacteria show shorter TTP as well. BacT/Alert (Biomerieux, Marcy-l’Étoile, France and VersaTrek (ThermoFisher, Waltham, MA, United States) were tested, and shorter TTP was shown for both systems (see Figure S1 in the Supplementary Materials).

Assay [4] has as its system mycobacteria. In words: TTP in VersaTrek system. The conditions noted are these: Peptide 14D; VersaTrek (ThermoFisher); Figure S1. The assay is classed as cell-based. Here is the method: as §1
For a further assay, the system named is Mycobacterium marinum. The assay is classed as cell-based, Mycobacterium marinum NCTC 2275. As to conditions: Peptide 14 at 20 µg/mL, 30 °C.
Assay [5] relates to Mycobacterium avium-intracellulare. The assay is classed as cell-based, Mycobacterium intracellulare serotype 7 NCTC10682. As to conditions: Peptide 14 at 20 µg/mL.
A further assay relates to Mycobacterium celatum. In kind it is cell-based, Mycobacterium celatum (clinical isolate). The conditions noted are these: Peptide 14 at 20 µg/mL.
Another assay deals with Mycobacterium abscessus. The assay is classed as cell-based, Mycobacterium abscessus (clinical human isolate). As to conditions: Peptide 14 at 20 µg/mL.
For a further assay, the system named is M. bovis. The assay is classed as cell-based.

As for wkivfwwrr-CONH2 [Peptide 14D], the “Growth enhancement after the peptide was removed” value in [1] is listed as “reversible”. For the same substance, in [1] (peptide 10 µg/mL, absorbance at 600 nm), the “Effect on growth of MAP (growth-enhancing activity) of protease-stabilised peptides” value was “small improvement in activity”. Besides, the “Concentration at which growth inhibition of MTB is observed” value in [2] was no less than 10 µg/mL. The “Concentration with strong sustained growth stimulation of MTB” value in assay [2] came out at 1 µg/mL. The “Time to Positivity (Days.Hours) Experiment 2” value with M. tuberculosis (Peptide 14D 0.1 µg/mL, MGIT) came out at 5.19 Days.Hours; in the assay with M. tuberculosis (Peptide 14D 0.5 µg/mL, MGIT), 5.17 Days.Hours; in the assay on M. tuberculosis (Peptide 14D 1 µg/mL, MGIT), 5.08 Days.Hours; with M. tuberculosis (Peptide 14D 10 µg/mL, MGIT) it was 7.08 Days.Hours; in the assay on M. tuberculosis (Peptide 14D 25 µg/mL, MGIT), 9.17 Days.Hours. Besides, the “Time to Positivity (Days.Hours) Experiment 1” value is given as 5.12 Days.Hours in the assay on M. tuberculosis (Peptide 14D 0.1 µg/mL, MGIT); 5.17 Days.Hours with M. tuberculosis (Peptide 14D 0.5 µg/mL, MGIT); 5.05 Days.Hours in the assay on M. tuberculosis (Peptide 14D 1 µg/mL, MGIT); 7.03 Days.Hours in the assay with M. tuberculosis (Peptide 14D 10 µg/mL, MGIT); 9.21 Days.Hours in the assay with M. tuberculosis (Peptide 14D 25 µg/mL, MGIT); 19.15 Days.Hours with M. tuberculosis (Peptide 14D 50 µg/mL, MGIT). Further, the “Average % Faster than Control” value is 15.0% in the assay with M. tuberculosis (Peptide 14D 0.1 µg/mL, average of two independent experiments); 14.1% in the assay on M. tuberculosis (Peptide 14D 0.5 µg/mL, average of two independent experiments); 21.6% in the assay on M. tuberculosis (Peptide 14D 1 µg/mL, average of two independent experiments); −7.3% in the assay with M. tuberculosis (Peptide 14D 10 µg/mL, average of two independent experiments, negative = slower); −48.7% in the assay with M. tuberculosis (Peptide 14D 25 µg/mL, average of two independent experiments, negative = slower); −207.6% in the assay with M. tuberculosis (Peptide 14D 50 µg/mL, average of two independent experiments, negative = slower). The “Increase of time to positivity, first experiment” value in the assay with M. tuberculosis (Peptide 14D 10 µg/mL) is 8 h. Also, the “Increase of time to positivity, second experiment” value in the assay with M. tuberculosis (Peptide 14D 10 µg/mL) is on record as 20 h. Moreover, in the assay with M. tuberculosis (Peptide 14D 50 µg/mL), the “Delay of growth (days to reach positivity relative to control)” value is listed as “about triple”. The “Copy number compared with MTB control” value in the assay with MTB H37Rv is given as “higher copy number”. Moreover, in the assay on MTB H37Rv ([…], duplicates, cydA Taqman qPCR), the Copy number was determined as 1762000. Also, the “Effect on TTP” value with mycobacteria [3] and with mycobacteria [4] was “shorter TTP” in each case.

As to WKIVFWWRR-NH2 [Peptide 14], the “Dependence of growth-enhancing effect on starting inoculum” value in assay [1] is recorded as “lower inocula being more greatly affected”. The “Effect on growth of MAP compared to control” value in [1] (peptide 20 µg/mL, […], 37 °C) is on record as “strongest effects”. Also, the Effect on growth entry was “growth stimulating effect” in the assay on Mycobacterium marinum; “growth stimulating effect” in [5]; “growth stimulating effect” with Mycobacterium celatum; “enhance the growth” in the assay with Mycobacterium abscessus; “growth stimulating effect” in the assay with M. bovis. In addition, in assay [2], the “Concentration at which growth inhibition of MTB is observed” value is recorded as 50 µg/mL. Further, in [2], the “Effect on growth of MTB compared to control” value is given as “slight improvements”. Moreover, in assay [2], the “Upper end of concentration range with hormetic response / growth stimulation in MTB” value is reported as 10 µg/mL. The “Effect on TTP of MTB in words” value with M. tuberculosis (peptide 10 µg/mL, MGIT) was “strong hormetic response”. In addition, in the assay with M. tuberculosis (peptide 10 µg/mL, MGIT, diluted inoculum, technical repeat 2a, TB control (no peptide) 15.01), the “Time to Positivity (Days.Hours) Experiment 2a” value stood at 13.23 Days.Hours. The “Time to Positivity (Days.Hours) Experiment 2b” value in the assay with M. tuberculosis (peptide 10 µg/mL, MGIT, diluted inoculum, technical repeat 2b, TB control (no peptide) 15.20) was found to be 14.01 Days.Hours. In the assay with M. tuberculosis (peptide 10 µg/mL, MGIT, less diluted inoculum, technical repeat 1a, TB control (no peptide) 7.02), the “Time to Positivity (Days.Hours) Experiment 1a” value was determined as 6.01 Days.Hours. In addition, in the assay with M. tuberculosis (peptide 10 µg/mL, MGIT, less diluted inoculum, technical repeat 1b, TB control (no peptide) 7.01), the “Time to Positivity (Days.Hours) Experiment 1b” value is listed as 6.12 Days.Hours. Further, the “Average % Faster than Control” value with M. tuberculosis (peptide 10 µg/mL, overall average of the averages of experiments 1a/1b and 2a/2b, negative = slower) worked out at 9.1%.
